Measurements: patent publication US20240294519A1, “PYRROLO[2,3-b]PYRIDINE PGDH INHIBITORS AND METHODS OF MAKING AND USING” (EPIRIUM BIO INC., priority 2021, published 2024)
pIC50: −log10 of the molar value. “And” between values parts separate entries of the source, which are not always exact repeats. Equal values may be shown once.

Assays:
15-PGDH/HPGD = target: T1, 15-PGDH/HPGD (Homo sapiens, UniProt P15428); experiment: hPGDH inhibitor screening biochemical assay; conditions: 10 nM enzyme, 15 μM PGE2, 0.25 mM NAD, fluorescence ex/em 340/485 nm
T1 construct: purchased R&D System 5660-DH
T1 sequence (P15428 1-266): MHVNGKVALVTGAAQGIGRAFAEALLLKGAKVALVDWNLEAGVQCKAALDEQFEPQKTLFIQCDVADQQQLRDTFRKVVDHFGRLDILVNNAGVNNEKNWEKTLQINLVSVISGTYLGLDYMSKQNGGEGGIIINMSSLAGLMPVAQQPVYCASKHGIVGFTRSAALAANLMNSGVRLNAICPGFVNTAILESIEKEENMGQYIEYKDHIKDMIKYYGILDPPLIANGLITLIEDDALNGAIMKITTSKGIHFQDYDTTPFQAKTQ
How it was run: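 Recombinant human 15-PGDH (10 nM) was preincubated with compound for 10 min at 37° C in 50 mM Tris-HCl pH 7.5 with 0.01% Tween 20. Reaction with 15 μM PGE2 and 0.25 mM NAD+ ran 10 min at room temperature, read by fluorescence at ex/em 340/485 nm. IC50 was derived from 10-point curves, relative to 1% DMSO.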

15-PGDH = target: T2, 15-PGDH (Homo sapiens, UniProt P15428); experiment: A549 cell based assay: PGE2 in supernatant after IL-1β (HTRF); conditions: A549 cells, fold induction of PGE2, IL-1β plus test article versus IL-1β only
T2 construct: 15-PGDH is highly expressed in resting human lung adenocarcinoma cells (A549); endogenous in cells; host or cells: A549
T2 sequence (P15428 1-266): T1 sequence (P15428 1-266)
Protocol: Cell Based Assay: 15-PGDH is highly expressed in resting human lung adenocarcinoma cells (A549) (Tong et al., 2006), and this cell line was used to assess 15-PGDH inhibition by MF-300Na in vitro.
In this assay, A549 cells are treated with interleukin (IL) 1β, which induces the expression of cycloxygenase-2 and the synthesis of PGE2 (Tong et al., 2006). In the studies evaluating test articles, thirty thousand A549 cells were seeded in 100 μL F12K completed media and incubated for 24 hours at 37° C. with 5% CO2 before being serum-starved for 24 hours. On the day of the experiment, buffer was changed to complete medium, and cells were incubated for 30 minutes with compounds prior to the addition of IL-1β (final concentration of 0.1-0.25 ng/mL) overnight at 37° C. with 5% CO2. Each concentration was run in triplicate. […] The PGE2 in the supernatant was detected and quantified using a Cisbio HTRF technology (Homogeneous Time-Resolved Fluorescence) kit (62P2APEG-62P2APEH) according to the manufacturer's recommendations, quantifying the fold induction of PGE2 of cells treated with IL-1β plus test article, versus treatment with IL-1β only.

Row | Structure (SMILES) | pIC50 (15-PGDH/HPGD) | PGE2 - HTRF over IL-β induction at 0.001 μM (15-PGDH) | PGE2 - HTRF over IL-β induction at 0.01 μM (15-PGDH) | PGE2 - HTRF over IL-β induction at 0.1 μM (15-PGDH) | PGE2 - HTRF over IL-β induction at 1 μM (15-PGDH)
1 | CCC1CCCN(C(=O)c2cnc3c(ccn3-c3cncc(NC(=O)OC)c3)c2)C1 (stereo not drawn) [Compound B-83] | > 7.00 | 1.4 | 2.64 | 2.84 | 4.39
2 | CNc1nc2ccc(-n3ccc4cc(C(=O)N5CCC(F)(F)CC5)cnc43)cn2n1 [Compound B-89] | > 7.00 | 1.57 | 3.31 | 3 | 5.13
3 | Cn1cc(C(=O)Nc2cncc(-n3ccc4cc(C(=O)N5CCC(F)(F)CC5)cnc43)c2)cn1 [Compound B-92] | > 7.00 | – | 2.91 and 2.33 | 4.01 and 3.89 | 3.56 and 3.92
4 | CN(C)c1nc2ccc(-n3ccc4cc(C(=O)N5CCC(F)(F)CC5)cnc43)cn2n1 [Compound B-102] | 6.00 to 7.00 | 0.95 | 1.08 | 3.09 | 5.02
5 | CCOC(=O)Nc1cc(-n2ccc3cc(C(=O)N4CCC(F)(F)CC4)cnc32)cnc1C [Compound B-96] | > 7.00 | 0.77 | 1.54 | 3.22 | 5.19
6 | O=C(c1cnc2c(ccn2-c2ccc(N3CCOC3=O)nc2)c1)N1CCCC(C(F)(F)F)C1 (stereo not drawn) [Compound B-114] | > 7.00 | 2.23 | 5.78 | 7.25 | 11.1
7 | CC(C)OC(=O)Nc1cncc(-n2ccc3cc(C(=O)N4CCC(F)(F)CC4)cnc32)c1 [Compound B-88] | > 7.00 | 2.14 | 3.77 | 3.25 | 4.67
8 | O=C(c1cnc2c(ccn2-c2ccc(N3CCOC3=O)nc2)c1)N1CCC[C@@H](C(F)(F)F)C1 [Compound B-81] | 6.00 to 7.00 | 0.51 | 1.08 | 2.21 | 1.92

More lines, now with the values ahead:

Row | pIC50 (15-PGDH/HPGD) | PGE2 - HTRF over IL-β induction at 0.001 μM (15-PGDH) | PGE2 - HTRF over IL-β induction at 0.01 μM (15-PGDH) | PGE2 - HTRF over IL-β induction at 0.1 μM (15-PGDH) | PGE2 - HTRF over IL-β induction at 1 μM (15-PGDH) | Structure (SMILES)
9 | > 7.00 | 3.59 | 4.44 | 4.8 | 4.34 | CCC1CCCN(C(=O)c2cnc3c(ccn3-c3cncc(NC(=O)OC)c3)c2)C1 (stereo in doubt) [Compound B-70, methyl(S)-(5-(5-(3-ethylpiperidine-1-carbonyl)-1H-pyrrolo[2,3-b]pyridin-1-yl)pyridin-3-yl)carbamate]
10 | > 7.00 | 2.93 | 4.16 | 3.31 | 4.33 | O=C(c1cnc2c(ccn2-c2cccc(-c3nc[nH]n3)c2)c1)N1CCC(F)(F)CC1 [Compound B-36, (1-(3-(4H-1,2,4-triazol-3-yl)phenyl)-1H-pyrrolo[2,3-b]pyridin-5-yl)(4,4-difluoropiperidin-1-yl)methanone]
11 | > 7.00 | 0.70 | 4.01 | 4.06 | 3.42 | O=C(Nc1cncc(-n2ccc3cc(C(=O)N4CCC(F)(F)CC4)cnc32)c1)C1CCCC1 [Compound B-234]
12 | > 7.00 | 1.94 | 3.38 | 4.02 | 5.76 | COC(=O)Nc1cncc(-n2ccc3cc(C(=O)N4CCCC(C(F)(F)F)C4)cnc32)c1 (stereo not drawn) [Compound B-84]
13 | > 7.00 | 2.36 | 2.83 | 2.86 | 2.4 | O=C(c1cnc2c(ccn2-c2ccc(N3CCOC3=O)nc2)c1)N1CCC[C@H](C(F)(F)F)C1 [Compound B-80]
14 | > 7.00 | 2.17 | 3.03 | 3.96 | 3.96 | O=C(c1cnc2c(ccn2-c2ccc(-c3nnc(C4CC4)[nH]3)cc2)c1)N1CCC(F)(F)CC1 [Compound B-72]
